ChEMBL document CHEMBL1201862, “PubChem BioAssay data set” (2004)
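A five-concentration, 48-hour dose response in 96-well plates underlies each endpoint, interpolated linearly between surrounding concentrations. At the GI50, growth is halved.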 Active and inactive are the calls of the source. No stated cut-off is given here; in the data, active = GI50 up to about 1.1 µM and inactive = higher. Where a SMILES comes first, the peptide text is derived from it. [ ]: non-standard residue; d: D form. The star is where a group is joined. Phe(4-NO2) = N[CH](Cc1ccc([N+](=O)[O-])cc1)C(=O)O; Boc = CC(C)(C)OC(=O)*; OtBu = CC(C)(C)O*

Legend:
Assay in all cases: DTP human tumour cell line panel, 48 h
[1] = test system: CAKI-1
[2] = test system: CCRF-CEM
[3] = test system: COLO 205
[4] = test system: DU-145
[5] = test system: EKVX
[6] = test system: HCT-116
[7] = test system: HOP-62
[8] = test system: HT-29
[9] = test system: IGROV-1
[10] = test system: LOX IMVI
[11] = test system: NCI-H522
[12] = test system: OVCAR-8
[13] = test system: PC-3
[14] = test system: SF-295
[15] = test system: SF-539
[16] = test system: SK-MEL-28
[17] = test system: SNB-75
[18] = test system: SR
[19] = test system: SW-620
[20] = test system: TK-10

Measured: GI50

COC(=O)C1CCC(=O)N1CN(C(C)=O)c1ccccc1 (stereo not given)
inactive: [1] > 100 µM | [2] > 100 µM | [3] > 100 µM | [4] > 100 µM | [5] > 100 µM | [6] > 100 µM | [7] > 100 µM | [8] > 100 µM | [9] > 100 µM | [10] > 100 µM | [11] > 100 µM | [12] > 100 µM | [13] > 100 µM | [14] > 100 µM | [15] > 100 µM | [16] > 100 µM | [17] > 100 µM | [18] 3.39 µM | [19] > 100 µM | [20] > 100 µM

Nc1ncnc2c1ncn2CC(O)C(=O)O (stereo not given)
inactive: [1] > 100 µM | [2] > 100 µM | [3] > 100 µM | [4] > 100 µM | [5] > 100 µM | [6] > 100 µM | [7] > 100 µM | [8] > 100 µM | [9] > 100 µM | [10] > 100 µM | [11] > 100 µM | [12] > 100 µM | [13] > 100 µM | [14] > 100 µM | [15] > 100 µM | [16] > 100 µM | [17] > 100 µM | [18] > 100 µM | [19] > 100 µM | [20] > 100 µM

Cc1n[nH]c(=O)n1C1CCCC1
inactive: [1] > 100 µM | [2] > 100 µM | [3] > 100 µM | [4] > 100 µM | [5] > 100 µM | [6] > 100 µM | [7] > 100 µM | [8] > 100 µM | [9] > 100 µM | [10] > 100 µM | [11] > 100 µM | [12] > 100 µM | [13] > 100 µM | [14] > 100 µM | [15] > 100 µM | [16] > 100 µM | [17] > 100 µM | [18] > 100 µM | [19] > 100 µM | [20] > 100 µM

CC(=O)OCCN1c2ccccc2Sc2cnccc21
inactive: [1] > 10 µM | [2] > 10 µM | [3] > 10 µM | [4] > 10 µM | [5] 8.55 µM | [6] > 10 µM | [7] > 10 µM | [8] > 10 µM | [9] > 10 µM | [10] > 10 µM | [11] > 10 µM | [12] > 10 µM | [13] > 10 µM | [14] > 10 µM | [15] > 10 µM | [16] > 10 µM | [17] 9.38 µM | [18] > 10 µM | [19] > 10 µM | [20] > 10 µM

COC(=O)C(Cc1ccc([N+](=O)[O-])cc1)NC(=O)C(CC(=O)OC(C)(C)C)NC(=O)OC(C)(C)C (stereo not given) (Boc-Asp(OtBu)-[Phe(4-NO2)]-OMe; configuration not given here)
inactive: [1] > 100 µM | [2] > 100 µM | [3] 30.2 µM | [4] > 100 µM | [5] > 100 µM | [6] > 100 µM | [7] > 100 µM | [8] > 100 µM | [9] > 100 µM | [10] 20.9 µM | [11] 63.5 µM | [12] 38.1 µM | [13] > 100 µM | [14] > 100 µM | [15] > 100 µM | [16] 25.5 µM | [17] 55.5 µM | [18] 21.4 µM | [19] > 100 µM | [20] > 100 µM
